These results are taken from EP4755396A1, “TREATMENT OF P53 GENE MUTATION OR DEFECT NEGATIVE CANCER AND TUMOR PATIENTS” (Ascentawits Pharmaceuticals, Ltd., priority 2023, dated 2025).

Molecules are shown by their SMILES. Like-named read-outs stand apart in the source and are kept apart here. Peptide text beside a SMILES is read from it. * marks the point of attachment. Cbz = O=C(OCc1ccccc1)*

In assay [1] the test system is H460 cells. Kind of assay: In vitro cell proliferation inhibition under normoxia (96-well, CTG, 72 hours). The format is cell-based, human. The note with it: for inhibition at 0.025 µM / inhibition at 0.05 µM: NCI-H460, H460 cells; for inhibition at 0.025 µM: RITA 0.025 µM; for inhibition at 0.05 µM: RITA 0.05 µM. Here is the method:
Overview of the experimental process • 1) H460 cell suspension was added to a 96-well plate at 100 µL per well, with a cell density of 2000 /well. • 2) The cells were cultured overnight in an incubator at 37°C, 5% CO2. • 3) Compound Treatment
Monotherapy: After 24 hours of cell plating, each well was supplied with 99.5 µL of growth medium then added with 0.5µL of test compounds at different concentrations, shaken gently to ensure even mixing, and then placed at 37°C, 5% CO2 in an incubator.
Combination therapy: After 24 hours of cell plating, each well was supplied with 99 µL of growth medium then added with 0.5µL of the combined action compound Nutlin-3, shaken gently to ensure even mixing, and then placed in an incubator for 2 hours. Then each well was added with 0.5µL of test compounds at different concentrations, shaken gently to ensure even mixing, and then placed at 37°C, 5% CO2 in an incubator.
(§1) 4) The cell plate was placed in the incubator for 72 hours.
(§2) 5) The cell plate to be tested was placed at room temperature to equilibrium for 30 minutes, and 100µL of medium was discarded per well.
(§3) 6) 25µL of CTG reagent was added to each well, placed at a fast shaker to shake for 2 minutes, and placed at room temperature away from light for 30 minutes.
(§4) 7) The chemiluminescence signal value was read using a multifunctional microplate reader with a reading time of 1000 ms.
8) IC50 was calculated with Graph Pad Prism 5 software.
(§5) • 1) H460 and HPAF-II cell suspensions were added to a 96-well plate at 100 µL per well, with a cell density of 2000 /well and 20000/well, respectively. • 2) The cells were cultured overnight in an incubator at 37°C, 5% CO2. • 3) Compound Treatment
(§6) Combination therapy: After 24 hours of cell plating, 99 µL of growth medium was supplied to each well. Each well was added with 0.5 µL of Nutlin-3 or RITA, shaken gently to ensure even mixing, and then placed in an incubator for 2 hours. Then each well was added with 0.5µL of test compounds at different concentrations, shaken gently to ensure even mixing, and then placed at 37°C, 5% CO2 in an incubator.
(§7) Monotherapy: After 24 hours of cell plating, 99.5 µL of growth medium was supplied to each well. Then each well was added with 0.5µL of test compounds at different concentrations, shaken gently to ensure even mixing, and then placed at 37°C, 5% CO2 in an incubator.
(§8) 7) The chemiluminescence signal value was read using a multifunctional microplate reader with a reading time of 1000 ms. The corresponding inhibition rate data were calculated.
(§9) • 1) NCI-H460, NCI-H460 P53KO # 1 cell suspensions were added to a 96-well plate at 100 µL per well, with a cell density of 2000 /well. • 2) The cells were cultured overnight in an incubator at 37°C, 5% CO2. • 3) Compound Treatment
(§10) Combination therapy: After 24 hours of cell plating, 99 µL of medium was supplied to each well. Each well was added with 0.5µL of combined action compound, shaken gently to ensure even mixing, and then placed in an incubator for 2 hours. Then each well was added with 0.5µL of test compounds at different concentrations, shaken gently to ensure even mixing, and then placed at 37°C, 5% CO2 in an incubator.
(§11) 8) The ICso (half maximal inhibitory concentration) values were calculated using GraphPad Prism 5 software.

The test system of assay [2] is HPAF-II cells. Kind of assay: In vitro cell proliferation inhibition (96-well, CTG, 72 hours). The format is cell-based. The note with it: Homo sapiens, HPAF-II cells, 72 hours; for inhibition at 2.5 µM: RITA 2.5 µM; for inhibition at 5 µM: RITA 5 µM. Here is the method: as §5, §6, §7, §1, §2, §3, §8
The subject of assay [3] is RAD51 protein in H460 cells. Kind of assay: WB detection of RAD51 protein amount, degradation and half-life. The format is cell-based. The note with it: 0.1-1 nM AST-3424, 5 µM Nutlin-3, 5 µM MG-132, 24 hours (Figures 14-17). Here is the method: In the first, the second and the third experiments of the effect of AST-3424 in combination with Nutlin-3 on Ser15-p53, Ser20-p53, Total p53, MDM2 and p21 proteins in H460 cells in example 5, the applicant also performed WB detection of RAD51 protein, with the results shown in Figures 14, 15 and 16.
• 1) H460 cell suspension was added to a 24-well plate, with a cell density of 100000 /well and 995 µL of medium per well. • 2) The cells were cultured overnight in an incubator at 37°C, 5% CO2. • 3) Compound Treatment
Monotherapy: After 24 hours of cell plating, each well was supplied with 5µL of test compounds at different concentrations: 1% DMSO, 0.1nM AST-3424 and 5 µM Nutlin-3, shaken gently to ensure even mixing, and then placed at 37°C, 5% CO2 in an incubator. After continuing culture for 24 hours, the cells were collected.
Combination therapy: After 24 hours of cell plating, • Adding 0.1 nM AST-3424 for pre-treatment for 2 hours, and then adding 5 µM Nutlin-3 for co-treatment for 22 hours; • Adding 1% DMSO and 5 µM MG-132 for co-treatment for 24 hours; • Adding 0.1 nM AST-3424 and 5 µM MG-132 for co-treatment for 24 hours; • Adding 5 µM Nutlin-3 and 5 µM MG-132 for co-treatment for 24 hours; • Adding 0.1 nM AST-3424 for pre-treatment for 2 hour, and then adding 5 µM Nutlin-3 for treatment for 16 hours, and then adding 5µM MG-132 for co-treatment for 6 hours. […]

For assay [4], the system named is H460 P53 KO #1. Kind of assay: In vitro cell proliferation inhibition under normoxia, p53 knockout cells. In kind it is cell-based, human. As to the method: The p53 CRISPR/Cas9 KO plasmid (human) and p53 HDR plasmid (human) were purchased from Santa Cruz Company to construct H460 P53 KO cell lines, namely p53 knockout (KnockOut) H460 cell lines. Three groups of H460 P53 KO cell lines were constructed with numbers of H460 P53 KO # 1, H460 P53 KO # 7, and H460 P53 KO # 12.
After co-incubation for 15 minutes, they were added dropwise to the culture medium and mixed well.
After 48 h, 2 µg/mL puromycin was added for screening.
When the cell colonies grew to a sufficient size, single colonies were picked and cultured.
When the cell number reached a sufficient quantity, samples were collected for WB identification of the colonies.
H460 P53 KO cell lines, i.e. H460 P53 KO # 1, H460 P53 KO # 7, H460 P53 KO # 12 cell lines were used in experiments, respectively.
as §9, §7, §10, §1, §2, §3, §4, §11

For `OCc1ccc(-c2ccc(-c3ccc(CO)s3)o2)s1` [RITA], the inhibition – broadly, the share of the control response that was lost under treatment – at 0.025 µM in assay [1] (Homo sapiens, 72 hours, AST 0.5 nM, AST + RITA 0.5+0.025, read-out: Inhibition rate result, experimental group 1) stood at 22.3%; in assay [1] (Homo sapiens, 72 hours, AST 1.5 nM, AST + RITA 1.5+0.025, read-out: Inhibition rate result, experimental group 3), 22.3%. Besides, the inhibition at 0.05 µM in assay [1] (Homo sapiens, 72 hours, AST 0.5 nM, AST + RITA 0.5+0.05, read-out: Inhibition rate result, experimental group 2) stood at 22.4%; in assay [1] (Homo sapiens, 72 hours, AST 1.5 nM, AST + RITA 1.5+0.05, read-out: Inhibition rate result, experimental group 4), 22.4%. The inhibition at 2.5 µM in assay [2] (AST 60 nM, AST + RITA 60+2.5, read-out: Inhibition rate, experimental group 1) came out at 2.86%; in assay [2] (AST 200 nM, AST + RITA 200+2.5, read-out: Inhibition rate, experimental group 3) it was 2.86%; in assay [2] (AST 1667 nM, AST + RITA 1667+2.5, read-out: Inhibition rate, experimental group 5), 2.86%; in assay [2] (AST 5000 nM, AST + RITA 5000+2.5, read-out: Inhibition rate, experimental group 7), 2.86%. Further, the inhibition at 5 µM was determined as 5.56% in assay [2] (AST 60 nM, AST + RITA 60+5, read-out: Inhibition rate, experimental group 2); 5.56% in assay [2] (AST 200 nM, AST + RITA 200+5, read-out: Inhibition rate, experimental group 4); 5.56% in assay [2] (AST 1667 nM, AST + RITA 1667+5, read-out: Inhibition rate, experimental group 6); 5.56% in assay [2] (AST 5000 nM, AST + RITA 5000+5, read-out: Inhibition rate, experimental group 8).

Turning to `CC(C)C[C@@H](C=O)NC(=O)[C@H](CC(C)C)NC(=O)[C@H](CC(C)C)NC(=O)OCc1ccccc1` [MG-132] (Cbz-Leu-Leu-Leu-aldehyde), the “RAD51 protein amount (WB)” value in assay [3] was “reversed the downregulation of RAD51 protein”.

In the case of `CN(C)C(=O)c1cccc(Oc2cc3c(cc2[N+](=O)[O-])OCCC3OP(=O)(N2CC2)N2CC2)c1` (centres unmarked) [Compound C], the concentration for half-maximal inhibition (IC50) (commonly the concentration at which inhibition is half-maximal) turned out to be 2.05 nM in assay [1] (Homo sapiens, NCI-H460, 72 h, NCI-H460, normoxia, 72 hours, alone or with 3 µM AST-3021 as labelled (Example 13)) and 36.1 nM in assay [4] (Homo sapiens, NCI-H460, 72 h, NCI-H460 P53KO # 1, normoxia, 72 hours, alone or with 3 µM AST-3021 as labelled (Example 13)). For the same molecule, the “Ratio, combination therapy/ monotherapy” value in assay [1] (IC50 ratio, NCI-H460, + 3 µM AST-3021 versus alone (Example 13)) is 305.37; in assay [4] (IC50 ratio, NCI-H460 P53KO # 1, + 3 µM AST-3021 versus alone (Example 13)), 43.24. In addition, the “Ratio, Compound C/AST-3424” value in assay [1] (IC50 ratio, NCI-H460, monotherapy) came out at 4.77; in assay [4] (IC50 ratio, NCI-H460 P53KO # 1, monotherapy), 6.62. Moreover, the “Ratio, knockout / wild” value in assay [4] (IC50 ratio, NCI-H460 P53KO # 1 versus NCI-H460, monotherapy (Example 13)) stood at 17.60.
